Results: patent publication US20100010082A1, “FORMULATIONS FOR TREATING EYE DISORDERS” (Aspreva International Ltd., priority 2008, published 2010)
Where two headings read alike, the source gives them in different places. Marks after values point to notes of the source that are not given here.

What was measured:
[1] = CellCept® label / Myfortic® label; cited from earlier work
[2] = system: Scopolamine Induced Dry Eye in C57BL/6 Mice; test: Scopolamine induced dry eye model; format: in vivo, Mus musculus; conditions: by the end of the study (Day 13)
Procedure: This dry eye model was based on that described in De Paiva et al., 2006, Investigative Opthalmology & Visual Science 47(7):2847-2856, incorporated herein by reference. The study consisted of seven groups of 10 female C57BL/6 mice each. Starting on Day 0, mice of Groups 1-6 were treated four times-daily (QID) with topical bilateral ocular (OU) administration of control or test articles at intervals of at least two hours. […] Mice in Group 7 served as untreated controls. On Day 3, scopolamine patches were placed on the tails of the mice and replaced every other day (Q2D) thereafter. From Days 3-12, mice were maintained in an environment with high-volume air draft (see Environmental stress section, below). […]
For each day of administration, mice were briefly restrained. […] Following patch application, animals were monitored for any adverse reactions, including the condition of the tail and Vetwrap®. […]
Slit Lamp Corneal Examinations. Both eyes of each animal were evaluated via a slit lamp ophthalmic examination using topically-applied fluorescein. Fluorescein dye was used to examine the surface of the cornea and scored.
Pathology. […] A board-certified veterinary pathologist evaluated slides via light microscopy. […]
Eyes were serially sectioned and examined. The representative corneas were scored based upon a 0-4 scale, with 0 being normal, 1 being minimal, 2 being mild, 3 being moderate, and 4 being severe. […]

[3] = system: Con-A-induced dry eye in NZW rabbits; test: Con A induced dry eye model, Tear Break-up Test (TBUT); format: in vivo, Oryctolagus cuniculus
[4] = system: Bovine Ocular Melanin Induced Uveitis in Lewis Rats
[5] = Days 17/18, pooled average (+/−SEM) of both eyes
[6] = Days 19/20, pooled average (+/−SEM) of both eyes
[7] = Days 26/27, pooled average (+/−SEM) of both eyes
[8] = Days 28/29, pooled average (+/−SEM) of both eyes
[9] = Days −2/−1 (before immunization and dosing)

SMILES: COc1c(C)c2c(c(O)c1C/C=C(\C)CCC(=O)OCCN1CCOCC1)C(=O)OC2 [MMF, mycophenolate mofetil]
- solubility (in words) [1]: only slightly soluble in water

SMILES: COc1c(C)c2c(c(O)c1C/C=C(\C)CCC(=O)[O-])C(=O)OC2.[Na+] [NaMPA, sodium mycophenolic acid]
- solubility (in words) [1]: highly soluble in aqueous solutions at physiological pH

SMILES: C[C@@H]1C[C@H]2[C@@H]3CCC4=CC(=O)C=C[C@]4(C)[C@@]3(F)[C@@H](O)C[C@]2(C)[C@@]1(O)C(=O)CO [dexamethasone]
- weight loss relative to other groups [2]: approx. 20%
- TBUT, post-hoc Tukey P vs. Vehicle ([3]; D6 (before Con A injection on Day 8)): <0.01
- TBUT, post-hoc Tukey P vs. Vehicle ([3]; D9): <0.05
- TBUT, post-hoc Tukey P vs. Vehicle ([3]; D10): <0.01
- TBUT, post-hoc Tukey P vs. Vehicle ([3]; D14): <0.001
- TBUT, post-hoc Tukey P vs. Vehicle ([3]; D15): <0.01
- TBUT, post-hoc Tukey P vs. Vehicle ([3]; D16): <0.001
- TBUT, post-hoc Tukey P vs. Vehicle ([3]; D17): <0.001
- Hyperemia Scores (pooled) ([4]; Days 14/15, pooled average (+/−SEM) of both eyes): 2.0 ±
- Hyperemia Scores (pooled) [4, 5]: 2.2 ±
- Opacity Scores (pooled) [4, 5]: 1.1 ±
- Hyperemia Scores (pooled) [4, 6]: 3.0 ± 0.0
- Opacity Scores (pooled) [4, 6]: 2.0 ± 0.0
- Hyperemia Scores (pooled) [4, 7]: 1.5 ± 0.5
- Opacity Scores (pooled) [4, 7]: 1.3 ± 0.5
- Hyperemia Scores (pooled) [4, 8]: 0.0*
- Opacity Scores (pooled) [4, 8]: 0.0*
- Hyperemia Scores (pooled) [4, 9]: 0
- Opacity Scores (pooled) [4, 9]: 0
- weight loss during study ([4]; rat, in vivo): significant drug-related weight loss
